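A five-concentration, 48-hour dose response in 96-well plates underlies each endpoint, interpolated linearly between surrounding concentrations. TGI: concentration producing complete growth inhibition.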 Where a SMILES comes first, the peptide text is derived from it. The star is where a group is joined. Cbz = O=C(OCc1ccccc1)*; Boc = CC(C)(C)OC(=O)*; Bn = c1ccc(C*)cc1
Tests used:
Experiment in all cases: growth of human tumour cells (NCI), 48 h
U251 CNS = test system: U251 CNS
MCF7 breast = test system: MCF7 breast
HT29 colon = test system: HT29 colon
SW-620 colon = test system: SW-620 colon
CCRF-CEM leukemia = test system: CCRF-CEM leukemia
SF-268 CNS = test system: SF-268 CNS
NCI-H522 lung = test system: NCI-H522 lung
OVCAR-3 ovarian = test system: OVCAR-3 ovarian
HCT-116 colon = test system: HCT-116 colon
KM12 colon = test system: KM12 colon
PC-3 prostate = test system: PC-3 prostate
NCI-H226 lung = test system: NCI-H226 lung
UACC-62 melanoma = test system: UACC-62 melanoma
IGROV1 ovarian = test system: IGROV1 ovarian
OVCAR-8 ovarian = test system: OVCAR-8 ovarian
MDA-N = test system: MDA-N
T-47D breast = test system: T-47D breast
SR leukemia = test system: SR leukemia
BT-549 breast = test system: BT-549 breast

Measured: TGI

C=C[C@H]1CC[C@H]2[C@@H]3CC=C4C[C@@H](OC5OCC(O)C(O)C5O)CC[C@]4(C)[C@H]3CC[C@]12C (stereo partly drawn)
> 100 µM: MCF7 breast | CCRF-CEM leukemia
40.2 µM: SW-620 colon
36.2 µM: SF-268 CNS
61.3 µM: HT29 colon
25.9 µM: NCI-H522 lung
33.7 µM: SR leukemia
28.4 µM: HCT-116 colon
34.6 µM: NCI-H226 lung
65.8 µM: MDA-N
25.5 µM: OVCAR-3 ovarian
31.8 µM: KM12 colon
37.7 µM: PC-3 prostate
33.5 µM: OVCAR-8 ovarian
30.5 µM: U251 CNS
55.3 µM: T-47D breast
45.2 µM: IGROV1 ovarian
54.3 µM: UACC-62 melanoma

C(=Nc1ccc(-c2cc(-c3ccccc3)nc3ccc4ccccc4c23)cc1)c1ccccc1
40.3 µM: HT29 colon
68.9 µM: OVCAR-3 ovarian
68 µM: KM12 colon
66.3 µM: NCI-H226 lung
62.1 µM: UACC-62 melanoma
not listed: NCI-H522 lung | T-47D breast | BT-549 breast
> 100 µM: all other assays above

CC(C)(C)[Si](C)(C)OCC1OC(n2ccc(=O)[nH]c2=O)C(O[Si](C)(C)C(C)(C)C)[C@@]12O[C@H]2C(N)=O (stereo partly drawn)
17.8 µM: PC-3 prostate
24.1 µM: MDA-N
23.2 µM: U251 CNS
18.7 µM: MCF7 breast
12.4 µM: HT29 colon
44.2 µM: KM12 colon
40.2 µM: BT-549 breast
22.1 µM: HCT-116 colon
32.5 µM: OVCAR-8 ovarian
25.9 µM: OVCAR-3 ovarian
11.4 µM: NCI-H226 lung
99.3 µM: UACC-62 melanoma
7.35 µM: NCI-H522 lung
8.66 µM: IGROV1 ovarian
42.5 µM: SW-620 colon
28.2 µM: SF-268 CNS

COc1ccc(C(=O)c2sc(Nc3ccccc3)nc2N)cc1
not listed: HCT-116 colon | KM12 colon | MDA-N
> 100 µM: all other assays above

C/C(=N\Nc1ccccc1Br)c1cccc(/C(C)=N/Nc2ccccc2Br)n1
not listed: NCI-H522 lung | UACC-62 melanoma | T-47D breast
> 100 µM: all other assays above

CC(=O)CCC(=O)C(=[N+]=[N-])S(=O)(=O)c1ccccc1
not listed: NCI-H226 lung | T-47D breast
> 100 µM: all other assays above

CN1CCN(c2cc3c(cc2F)c(=O)c(C(=O)O)cn3C2CC2)CC1CC#N (stereo not drawn)
not listed: NCI-H522 lung | PC-3 prostate
> 100 µM: all other assays above

O=c1c2c(c1=O)C1(SCCCS1)c1cc(Cl)ccc1O2
not listed: T-47D breast | SR leukemia
> 100 µM: all other assays above

CCN(CC)CCC1CCCCN1CC(=O)N1c2ccccc2NC(=O)c2ccccc21 (stereo not drawn)
not listed: SW-620 colon | BT-549 breast
> 100 µM: all other assays above

COc1cc(NCc2ccc3nc(-c4ccccc4)c(N)nc3c2)cc(OC)c1OC
55.9 µM: MCF7 breast
57.3 µM: OVCAR-8 ovarian
91 µM: T-47D breast
98.6 µM: SF-268 CNS
82.7 µM: OVCAR-3 ovarian
77 µM: CCRF-CEM leukemia
72.6 µM: UACC-62 melanoma
54.5 µM: KM12 colon
93.6 µM: PC-3 prostate
62.3 µM: NCI-H522 lung
33.7 µM: HCT-116 colon
not listed: BT-549 breast
> 100 µM: all other assays above

C=CC(C)(C)C(=C)C(=O)N(C)c1ccccc1I
not listed: IGROV1 ovarian | BT-549 breast
> 100 µM: all other assays above

CC(C)(C)OC(=O)NC(Cc1ccc(OCc2ccccc2)cc1)C(=O)NC(CCCCNC(=O)OCc1ccccc1)C(=O)O (stereo not drawn) (Boc-Tyr(Bn)-Lys(Cbz)-OH; configuration not given here)
89.6 µM: SR leukemia
43.9 µM: UACC-62 melanoma
60.8 µM: BT-549 breast
not listed: SF-268 CNS | NCI-H522 lung | OVCAR-3 ovarian | T-47D breast
> 100 µM: all other assays above

C#CCOCn1ccc(=O)[nH]c1=O
not listed: NCI-H522 lung | OVCAR-3 ovarian | BT-549 breast
> 100 µM: all other assays above

CN=CN(C)c1c2ccccc2nc2ccccc12
not listed: BT-549 breast
> 100 µM: all other assays above

N#Cc1c(-c2ccc(Cl)cc2)c(C#N)c(=O)n(NS(=O)(=O)c2ccccc2)c1S
91.2 µM: HCT-116 colon
58.3 µM: UACC-62 melanoma
65 µM: OVCAR-8 ovarian
69.9 µM: SW-620 colon
71.9 µM: U251 CNS
56.5 µM: SR leukemia
67.3 µM: MDA-N
> 100 µM: MCF7 breast | CCRF-CEM leukemia | OVCAR-3 ovarian | PC-3 prostate
65.5 µM: IGROV1 ovarian
66.1 µM: BT-549 breast
77.1 µM: NCI-H226 lung
47.4 µM: NCI-H522 lung

NC1=NNC2(C(=O)N1)c1ccccc1-c1ccccc12
not listed: HT29 colon | NCI-H522 lung | UACC-62 melanoma | BT-549 breast
> 10 µM: all other assays above

CCOC(=O)NC(C(=O)OCC)C(F)(F)F (stereo not drawn)
not listed: NCI-H522 lung | NCI-H226 lung | UACC-62 melanoma | T-47D breast | BT-549 breast
> 100 µM: all other assays above

Cc1cc(NC(=O)NC(=O)c2ccccc2N)ccc1Oc1ncc(Br)cn1
54.9 µM: KM12 colon
8.15 µM: HCT-116 colon
7.25 µM: U251 CNS
6.15 µM: PC-3 prostate
0.258 µM: HT29 colon
24 µM: IGROV1 ovarian
1.75 µM: UACC-62 melanoma
> 67.3 µM: SF-268 CNS
> 15.8 µM: SR leukemia
> 24.4 µM: T-47D breast
6.64 µM: NCI-H226 lung
18.6 µM: MCF7 breast
0.0555 µM: NCI-H522 lung
> 100 µM: SW-620 colon | CCRF-CEM leukemia
> 46.1 µM: OVCAR-8 ovarian
< 0.0173 µM: OVCAR-3 ovarian

CCN(CC)c1ccc(C2SCC(=O)N2c2ccc(NC(=O)c3ccc(N4C(=O)CSC4c4ccc(N(CC)CC)cc4)cc3)cc2)cc1 (stereo not drawn)
not listed: NCI-H226 lung | MDA-N | SR leukemia
> 100 µM: all other assays above

Cc1cc(OCc2nn(CN3CCN(C)CC3)c(=S)n2/N=C/c2ccc(-c3ccc(Cl)cc3Cl)o2)ccc1Cl
51 µM: SW-620 colon
47.6 µM: KM12 colon
59 µM: NCI-H522 lung
not listed: UACC-62 melanoma | SR leukemia | BT-549 breast
> 100 µM: all other assays above

Cc1nc2ccc(F)cc2c2c1CCO2
not listed: MCF7 breast | OVCAR-3 ovarian | PC-3 prostate
> 100 µM: all other assays above

COC(=O)[C@@H](O)[C@]1(C(=O)OC)C2O[C@@H](OC)[C@@H]1CCCCCC[C@H]2O
not listed: MCF7 breast | T-47D breast
> 100 µM: all other assays above

OCC1OC(Oc2cc(O)cc(/C=C/c3ccc(O)cc3)c2)C(O)C(O)C1O (stereo not drawn)
not listed: SF-268 CNS | T-47D breast
> 100 µM: all other assays above

COc1ccc(-c2cc(-c3ccc(Nc4ccnc5cc(Cl)ccc45)cc3)nc(N)c2C#N)cc1
not listed: HT29 colon | CCRF-CEM leukemia | MDA-N
> 100 µM: all other assays above

CC(O)(/C=C/c1ccccc1)P(=O)(O)c1ccccc1 (stereo not drawn)
not listed: CCRF-CEM leukemia | BT-549 breast
> 100 µM: all other assays above

COc1cc2c(cc1OC)CC(=O)c1cc(OC)c(OC)cc1/C=C\2
7.36 µM: MDA-N
not listed: T-47D breast | SR leukemia | BT-549 breast
> 12.5 µM: all other assays above

CSc1nc(-c2ccc(C)cc2)c(C#N)c(=O)[nH]1
not listed: MDA-N | SR leukemia
> 100 µM: all other assays above

From PubChem BioAssay (NCI)
